Drawing on ChEMBL document CHEMBL1126456, “Vinylogous hydroxamic acids: 5-lipoxygenase inhibitors” (Bioorg Med Chem Lett, 1992), this text covers IC50 for seven compounds.

Molecules are shown by their SMILES. Where only a bound is given, the exact number is not on record here.

The first test deals with T1, Polyunsaturated fatty acid 5-lipoxygenase (Rattus norvegicus, UniProt P12527).
T1 sequence (P12527 whole entry): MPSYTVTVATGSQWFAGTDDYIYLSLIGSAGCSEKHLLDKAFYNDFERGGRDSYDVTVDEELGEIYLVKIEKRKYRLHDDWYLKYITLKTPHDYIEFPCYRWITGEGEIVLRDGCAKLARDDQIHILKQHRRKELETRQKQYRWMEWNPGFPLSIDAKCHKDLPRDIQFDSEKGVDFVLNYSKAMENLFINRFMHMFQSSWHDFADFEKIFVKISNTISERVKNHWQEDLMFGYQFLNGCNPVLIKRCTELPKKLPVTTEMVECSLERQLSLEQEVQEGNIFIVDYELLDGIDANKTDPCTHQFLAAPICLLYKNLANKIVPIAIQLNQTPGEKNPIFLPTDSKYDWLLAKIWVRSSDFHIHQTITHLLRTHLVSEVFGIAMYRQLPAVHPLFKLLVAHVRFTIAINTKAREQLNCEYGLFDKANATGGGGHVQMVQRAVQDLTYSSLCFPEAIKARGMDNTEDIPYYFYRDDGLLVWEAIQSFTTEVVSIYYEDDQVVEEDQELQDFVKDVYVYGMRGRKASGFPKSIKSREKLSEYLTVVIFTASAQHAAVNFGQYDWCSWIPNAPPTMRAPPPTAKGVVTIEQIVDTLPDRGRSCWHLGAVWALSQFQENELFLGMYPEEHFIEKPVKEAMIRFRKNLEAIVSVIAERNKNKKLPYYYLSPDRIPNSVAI
Kind of test: Inhibition of 5-Lipoxygenase of rat basophilic leukemia cells. In kind it is cell-based, RBL-1.
Usually IC50 stands for the concentration that gives 50% inhibition. Compound `C/C(=C/N(O)Cc1ccccc1)C(=O)c1ccc(F)cc1` showed a concentration for half-maximal inhibition (IC50) of 0.3 µM.

For a further test, the target named is T2, Cyclooxygenase (Bos taurus, UniProt O62664+O62698).
T2 sequence (O62664 whole entry): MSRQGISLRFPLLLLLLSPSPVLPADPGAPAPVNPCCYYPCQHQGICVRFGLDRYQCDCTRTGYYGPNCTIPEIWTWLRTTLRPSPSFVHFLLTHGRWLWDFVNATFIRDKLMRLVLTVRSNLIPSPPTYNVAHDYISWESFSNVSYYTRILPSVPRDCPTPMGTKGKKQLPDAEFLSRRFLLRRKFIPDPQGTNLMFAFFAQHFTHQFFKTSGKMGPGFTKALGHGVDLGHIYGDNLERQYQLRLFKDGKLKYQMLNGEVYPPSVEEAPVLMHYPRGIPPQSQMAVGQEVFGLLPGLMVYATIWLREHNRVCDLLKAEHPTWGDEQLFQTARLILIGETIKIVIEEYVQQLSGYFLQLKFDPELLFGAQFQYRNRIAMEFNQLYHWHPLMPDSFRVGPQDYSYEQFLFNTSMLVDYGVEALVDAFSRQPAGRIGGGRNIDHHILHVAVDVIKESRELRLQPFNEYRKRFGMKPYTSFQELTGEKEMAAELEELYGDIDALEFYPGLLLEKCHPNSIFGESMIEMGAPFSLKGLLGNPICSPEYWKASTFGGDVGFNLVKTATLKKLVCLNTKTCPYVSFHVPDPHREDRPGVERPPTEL
T2 sequence (O62698 whole entry): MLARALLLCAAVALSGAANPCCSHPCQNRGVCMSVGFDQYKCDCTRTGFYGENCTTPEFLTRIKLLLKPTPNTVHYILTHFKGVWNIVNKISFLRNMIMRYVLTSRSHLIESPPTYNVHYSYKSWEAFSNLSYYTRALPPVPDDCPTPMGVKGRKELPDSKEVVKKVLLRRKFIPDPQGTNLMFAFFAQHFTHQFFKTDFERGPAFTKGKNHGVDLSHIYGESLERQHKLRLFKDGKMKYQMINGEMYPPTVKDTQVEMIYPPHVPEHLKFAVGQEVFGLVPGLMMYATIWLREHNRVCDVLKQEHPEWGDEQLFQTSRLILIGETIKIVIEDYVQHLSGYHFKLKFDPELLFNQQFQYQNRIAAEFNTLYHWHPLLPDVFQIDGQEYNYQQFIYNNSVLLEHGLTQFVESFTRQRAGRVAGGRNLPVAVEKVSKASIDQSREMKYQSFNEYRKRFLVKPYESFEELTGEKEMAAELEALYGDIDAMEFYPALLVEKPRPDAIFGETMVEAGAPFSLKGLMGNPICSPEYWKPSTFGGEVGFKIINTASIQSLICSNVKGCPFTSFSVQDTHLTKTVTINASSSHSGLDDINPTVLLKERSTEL
As to the kind of experiment: Compound was evaluated for inhibition against cyclooxygenase of bovine seminal vesicles. Type of test: protein assay.
As for `O=C(/C=C\N(O)Cc1ccccc1)c1ccc(F)cc1`, the concentration for half-maximal inhibition (IC50) is more than 750 µM.
On the same count and under the same terms, as for `CC(=O)ON(/C=C\C(=O)c1ccc(F)cc1)Cc1ccccc1`, the figure is more than 750 µM; as for `CON(/C=C\C(=O)c1ccc(F)cc1)Cc1ccccc1`, more than 750 µM; as for `O=C(/C=C\N(O)C1CCCCC1)c1ccc(F)cc1`, more than 750 µM.
The same measure, in the same setting: the same measure for `O=C1CCN(c2ccccc2)N1` [PHENIDONE]: 6.9 µM.
Still for that read-out and setting: the same measure for `CC(c1cc2ccccc2s1)N(O)C(N)=O` (configuration not stated) [ZILEUTON]: more than 750 µM.
